Data from PubChem BioAssay (NCI).
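How tested: cells in 96-well plates exposed to compound for 48 hours at five concentrations. The concentration for full growth arrest is given as TGI.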

Key:
Assay in all cases: NCI tumour cell line growth inhibition, 48 h
T-47D breast = system: T-47D breast
KM12 colon = system: KM12 colon
U251 CNS = system: U251 CNS
HCC-2998 colon = system: HCC-2998 colon
SF-295 CNS = system: SF-295 CNS
OVCAR-5 ovarian = system: OVCAR-5 ovarian
RXF 393 renal = system: RXF 393 renal
SR leukemia = system: SR leukemia
NCI/ADR-RES ovarian = system: NCI/ADR-RES ovarian
NCI-H522 lung = system: NCI-H522 lung
SK-OV-3 ovarian = system: SK-OV-3 ovarian
OVCAR-4 ovarian = system: OVCAR-4 ovarian
SNB-75 CNS = system: SNB-75 CNS
SK-MEL-5 melanoma = system: SK-MEL-5 melanoma
K-562 leukemia = system: K-562 leukemia
HCT-15 colon = system: HCT-15 colon
CCRF-CEM leukemia = system: CCRF-CEM leukemia
IGROV1 ovarian = system: IGROV1 ovarian
RPMI-8226 leukemia = system: RPMI-8226 leukemia
MOLT-4 leukemia = system: MOLT-4 leukemia
TK-10 renal = system: TK-10 renal
MDA-N = system: MDA-N
HS 578T breast = system: HS 578T breast
MCF7 breast = system: MCF7 breast
SK-MEL-28 melanoma = system: SK-MEL-28 melanoma
LOX IMVI melanoma = system: LOX IMVI melanoma
786-0 renal = system: 786-0 renal
NCI-H23 lung = system: NCI-H23 lung
EKVX NSCLC = system: EKVX NSCLC
MDA-MB-435 = system: MDA-MB-435
HT29 colon = system: HT29 colon
SN12C renal = system: SN12C renal
HCT-116 colon = system: HCT-116 colon
NCI-H226 lung = system: NCI-H226 lung
A498 renal = system: A498 renal
M14 melanoma = system: M14 melanoma
A549 NSCLC = system: A549 NSCLC
HL-60(TB) leukemia = system: HL-60(TB) leukemia
HOP-62 NSCLC = system: HOP-62 NSCLC
SW-620 colon = system: SW-620 colon
PC-3 prostate = system: PC-3 prostate
CAKI-1 renal = system: CAKI-1 renal
MALME-3M melanoma = system: MALME-3M melanoma
HOP-92 NSCLC = system: HOP-92 NSCLC
SF-539 CNS = system: SF-539 CNS
UACC-62 melanoma = system: UACC-62 melanoma
DU-145 prostate = system: DU-145 prostate
BT-549 breast = system: BT-549 breast
MDA-MB-231 breast = system: MDA-MB-231 breast
OVCAR-8 ovarian = system: OVCAR-8 ovarian
COLO 205 colon = system: COLO 205 colon
SK-MEL-2 melanoma = system: SK-MEL-2 melanoma
SF-268 CNS = system: SF-268 CNS
UACC-257 melanoma = system: UACC-257 melanoma
OVCAR-3 ovarian = system: OVCAR-3 ovarian
UO-31 renal = system: UO-31 renal
NCI-H460 lung = system: NCI-H460 lung
SNB-19 CNS = system: SNB-19 CNS
ACHN renal = system: ACHN renal

`COc1ccc2c(=O)c3ccoc3n(CC=C(C)C)c2c1` gave a TGI (T-47D breast) greater than 100 µM, a TGI (KM12 colon) greater than 100 µM and a TGI (U251 CNS) greater than 100 µM. The TGI (HCC-2998 colon) was greater than 100 µM, the TGI (SF-295 CNS) was greater than 100 µM and the TGI (OVCAR-5 ovarian) was greater than 100 µM. The TGI (RXF 393 renal) was greater than 81.1 µM, the TGI (SR leukemia) was greater than 100 µM and the TGI (NCI/ADR-RES ovarian) was 76.4 µM. The TGI (NCI-H522 lung) was greater than 33.2 µM, the TGI (SK-OV-3 ovarian) was greater than 100 µM and the TGI (OVCAR-4 ovarian) was greater than 100 µM. For the same compound, the TGI (SNB-75 CNS) was greater than 100 µM, the TGI (SK-MEL-5 melanoma) was greater than 69.3 µM and the TGI (K-562 leukemia) was greater than 100 µM. For the same compound, the TGI (HCT-15 colon) was greater than 100 µM, the TGI (CCRF-CEM leukemia) was greater than 100 µM and the TGI (IGROV1 ovarian) was greater than 100 µM. The TGI (RPMI-8226 leukemia) was greater than 100 µM, the TGI (MOLT-4 leukemia) was greater than 100 µM and the TGI (TK-10 renal) was greater than 100 µM. For the same compound, the TGI (MDA-N) was greater than 100 µM, the TGI (HS 578T breast) was greater than 100 µM and the TGI (MCF7 breast) was greater than 100 µM. For the same compound, the TGI (SK-MEL-28 melanoma) was greater than 100 µM, the TGI (LOX IMVI melanoma) was greater than 100 µM and the TGI (786-0 renal) was greater than 100 µM. The TGI (NCI-H23 lung) was greater than 100 µM, the TGI (EKVX NSCLC) was greater than 100 µM and the TGI (MDA-MB-435) was greater than 100 µM. For the same compound, the TGI (HT29 colon) was greater than 100 µM, the TGI (SN12C renal) was greater than 100 µM and the TGI (HCT-116 colon) was greater than 100 µM. The TGI (NCI-H226 lung) was greater than 100 µM, the TGI (A498 renal) was greater than 100 µM and the TGI (M14 melanoma) was greater than 100 µM. It also gave a TGI (A549 NSCLC) greater than 100 µM, a TGI (HL-60(TB) leukemia) greater than 96.6 µM and a TGI (HOP-62 NSCLC) greater than 100 µM. It also gave a TGI (SW-620 colon) greater than 100 µM, a TGI (PC-3 prostate) greater than 100 µM and a TGI (CAKI-1 renal) of 9.83 µM. It also gave a TGI (MALME-3M melanoma) of 18.7 µM, a TGI (HOP-92 NSCLC) greater than 63.7 µM and a TGI (SF-539 CNS) greater than 100 µM. For the same compound, the TGI (UACC-62 melanoma) was greater than 100 µM, the TGI (DU-145 prostate) was greater than 100 µM and the TGI (BT-549 breast) was greater than 100 µM. For the same compound, the TGI (MDA-MB-231 breast) was greater than 100 µM, the TGI (OVCAR-8 ovarian) was greater than 100 µM and the TGI (COLO 205 colon) was greater than 100 µM. For the same compound, the TGI (SK-MEL-2 melanoma) was greater than 100 µM, the TGI (SF-268 CNS) was greater than 100 µM and the TGI (UACC-257 melanoma) was greater than 100 µM. It also gave a TGI (OVCAR-3 ovarian) greater than 100 µM, a TGI (UO-31 renal) greater than 100 µM and a TGI (NCI-H460 lung) greater than 100 µM. For the same compound, the TGI (SNB-19 CNS) was greater than 100 µM.

For `COC(=O)c1ccccc1CC1Cc2ccc3c(c2C1)CCC3` (configuration not stated), the TGI (T-47D breast) was greater than 100 µM, the TGI (KM12 colon) was 92.1 µM and the TGI (ACHN renal) was greater than 100 µM. The TGI (U251 CNS) was 85.1 µM, the TGI (HCC-2998 colon) was 45.7 µM and the TGI (SF-295 CNS) was greater than 100 µM. For the same compound, the TGI (OVCAR-5 ovarian) was 91.3 µM, the TGI (RXF 393 renal) was 52.9 µM and the TGI (SR leukemia) was 27.1 µM. The TGI (NCI/ADR-RES ovarian) was 45.7 µM, the TGI (NCI-H522 lung) was 46.9 µM and the TGI (SK-OV-3 ovarian) was greater than 100 µM. The TGI (OVCAR-4 ovarian) was greater than 100 µM, the TGI (SNB-75 CNS) was greater than 100 µM and the TGI (SK-MEL-5 melanoma) was 43.8 µM. The TGI (K-562 leukemia) was greater than 100 µM, the TGI (HCT-15 colon) was 55.3 µM and the TGI (CCRF-CEM leukemia) was 36.9 µM. For the same compound, the TGI (IGROV1 ovarian) was greater than 100 µM, the TGI (RPMI-8226 leukemia) was 47.7 µM and the TGI (MOLT-4 leukemia) was 53.9 µM. For the same compound, the TGI (TK-10 renal) was greater than 100 µM, the TGI (MDA-N) was greater than 100 µM and the TGI (HS 578T breast) was greater than 100 µM. For the same compound, the TGI (MCF7 breast) was 30.1 µM, the TGI (SK-MEL-28 melanoma) was greater than 100 µM and the TGI (LOX IMVI melanoma) was 31.1 µM. For the same compound, the TGI (786-0 renal) was greater than 100 µM, the TGI (NCI-H23 lung) was greater than 100 µM and the TGI (EKVX NSCLC) was 48.8 µM. For the same compound, the TGI (MDA-MB-435) was 57.9 µM, the TGI (HT29 colon) was 96.8 µM and the TGI (SN12C renal) was greater than 100 µM. It also gave a TGI (HCT-116 colon) greater than 100 µM, a TGI (NCI-H226 lung) greater than 100 µM and a TGI (A498 renal) greater than 100 µM. It also gave a TGI (M14 melanoma) greater than 100 µM, a TGI (A549 NSCLC) greater than 100 µM and a TGI (HL-60(TB) leukemia) of 32.1 µM. The TGI (HOP-62 NSCLC) was greater than 100 µM, the TGI (SW-620 colon) was greater than 100 µM and the TGI (PC-3 prostate) was greater than 100 µM. For the same compound, the TGI (CAKI-1 renal) was greater than 100 µM, the TGI (MALME-3M melanoma) was 38.6 µM and the TGI (HOP-92 NSCLC) was 52.5 µM. The TGI (SF-539 CNS) was greater than 100 µM, the TGI (UACC-62 melanoma) was greater than 100 µM and the TGI (DU-145 prostate) was greater than 100 µM. It also gave a TGI (BT-549 breast) greater than 100 µM, a TGI (MDA-MB-231 breast) of 50.5 µM and a TGI (OVCAR-8 ovarian) greater than 100 µM. The TGI (COLO 205 colon) was 34.5 µM, the TGI (SK-MEL-2 melanoma) was 30.7 µM and the TGI (SF-268 CNS) was greater than 100 µM. The TGI (UACC-257 melanoma) was 28.6 µM, the TGI (OVCAR-3 ovarian) was greater than 100 µM and the TGI (UO-31 renal) was greater than 100 µM. It also gave a TGI (NCI-H460 lung) greater than 100 µM and a TGI (SNB-19 CNS) greater than 100 µM.
